Data set [1] relates to rat. Conditions: Multigenerational reproductive toxicity study, fischer, Oral, Feed, dose end: 1 generation.
Data set [2] relates to dog. Conditions: Chronic toxicity, beagle, Oral, Capsule, dose end: 52 week, group: systemic.
For data set [3], the system named is mouse. Conditions: Subchronic oral toxicity in rodents, B6C3F1, Feed, dose end: 3 month, group: systemic.
For data set [4], the system named is mouse. Conditions: Chronic toxicity; b6c3f1; Oral; Feed; dose end: 2 year; group: systemic; systemic / clinical chemistry / alkaline phosphatase (alp/alk) / alkaline phosphatase (alp/alk) + systemic / organ weight / liver / absolute….
Data set [5] relates to rat. Conditions: Combined chronic toxicity/carcinogenicity, fischer, Oral, Feed, dose end: 2 year, group: systemic.
The test system of data set [6] is dog. Conditions: Subchronic oral toxicity in nonrodent, beagle, Capsule, dose end: 90 day, group: systemic.
The subject of data set [7] is rat. Conditions: Chronic toxicity, fischer, Oral, Feed, dose end: 1 year, group: systemic.
For data set [8], the system named is dog. Conditions: Chronic toxicity; beagle; Oral; Feed; dose end: 52 week; group: systemic; systemic / organ weight / liver / relative to body weight + systemic / hematology / platelet / platelet + systemic / organ weight / kidney….
Data set [9] concerns mouse. Conditions: Carcinogenicity, Charles River, Oral, Feed, dose end: 104 week, group: systemic.
Data set [10] deals with rat. Conditions: Prenatal developmental toxicity study, sprague dawley, Oral, Gavage/Intubation, dose end: 15 GD.
The test system of data set [11] is rat. Conditions: Prenatal developmental toxicity study; wistar; Oral; Feed; dose end: 15 GD; group: maternal; systemic / in life observation / body weight / body weight gain + systemic / in life observation / food consumption / food consumption.
Data set [12] deals with rat. Conditions: Sub-acute repeat dose toxicity, sprague dawley, Oral, Feed, dose end: 14 day, group: systemic.
Data set [13] deals with mouse. Conditions: Sub-acute repeat dose toxicity, Oral, Feed, dose end: 14 day, group: systemic.
Data set [14] concerns rat. Conditions: Chronic toxicity; sprague dawley; Oral; Gavage/Intubation; dose end: 182 day; group: systemic; systemic / clinical chemistry / glucose / glucose + systemic / clinical chemistry / triglycerides / triglycerides + systemic / in life ….
Data set [15] deals with rat. Conditions: Sub-acute repeat dose toxicity, sprague dawley, Oral, Gavage/Intubation, dose end: 14 day, group: systemic.
Data set [16] concerns rat. Conditions: Sub-acute repeat dose toxicity, sprague dawley, Oral, Gavage/Intubation, dose end: 30 day, group: systemic.
Data set [17] concerns rat. Conditions: Fertility (Segment I), sprague dawley, Oral, Gavage/Intubation, dose end: 1 generation, group: parental.
For data set [18], the system named is dog. Conditions: Chronic toxicity; beagle; Oral; Gavage/Intubation; dose end: 364 day; group: systemic; systemic / in life observation / body weight / body weight + systemic / in life observation / clinical signs / arrhythmia + systemic / in ….
The subject of data set [19] is rabbit. Conditions: Sub-acute repeat dose toxicity; new zealand white; Oral; Gavage/Intubation; dose end: 5 day; group: systemic; systemic / in life observation / body weight / body weight + systemic / in life observation / food consumption / food consumption.
Data set [20] has as its system rabbit. Conditions: Prenatal developmental toxicity study, Oral, Gavage/Intubation, dose end: 19 GD.
Data set [21] deals with dog. Conditions: Sub-acute repeat dose toxicity; beagle; Oral; Gavage/Intubation; dose end: 30 day; group: systemic; systemic / clinical chemistry / potassium / potassium + systemic / in life observation / clinical signs / emesis + systemic / in life ….
Data set [22] deals with dog. Conditions: Sub-acute repeat dose toxicity; beagle; Oral; Gavage/Intubation; dose end: 10 day; group: systemic; systemic / in life observation / clinical signs / abnormal feces + systemic / in life observation / clinical signs / salivation + systemic….
For data set [23], the system named is rat. Conditions: Fertility (Segment I), sprague dawley, Oral, Gavage/Intubation, dose end: 1 generation, group: parental. This is another data set of the same source.
Setting [24] is: group: offspring, systemic / in life observation / clinical signs / urogenital staining + systemic / urinalysis / appearance and color / appearance and color.
Setting [25] is: group: parental, systemic / organ weight / liver / absolute + systemic / organ weight / liver / relative to body weight + systemic / in life observation / ….
[26] abbreviates: systemic / hematology / [other] / [other] + systemic / hematology / jolly bodies / jolly bodies + systemic / hematology / macrocytosis / ….
Setting [27] is: systemic / hematology / polychromasia / polychromasia + systemic / hematology / lymphocyte / lymphocyte + systemic / in life observation / ….
Setting [28] is: systemic / in life observation / clinical signs / urine, discoloration + systemic / clinical chemistry / glucose / glucose.
The mark [29] stands for this setting: systemic / pathology microscopic / mammary gland / fibroadenoma + systemic / clinical chemistry / urea nitrogen / urea nitrogen + systemic….
The mark [30] stands for this setting: systemic / organ weight / adrenal gland / absolute + systemic / organ weight / adrenal gland / relative to body weight + systemic / organ ….
The mark [31] stands for this setting: systemic / in life observation / body weight / body weight gain + systemic / pathology microscopic / lung / carcinoma + systemic / in life ….
[32] abbreviates: group: developmental, developmental / developmental malformation / kidney / small renal papilla.
The mark [33] stands for this setting: group: developmental, developmental / developmental malformation / kidney / small renal papilla + developmental / developmental malformation / spinal cord / ….
Where [34] appears, read: group: maternal, systemic / in life observation / food consumption / food consumption + systemic / pathology gross / spleen / discolored.
[35] abbreviates: group: maternal, systemic / in life observation / food consumption / food consumption + systemic / pathology gross / spleen / discolored + reproductive / ….
[36] abbreviates: systemic / in life observation / food consumption / food consumption + systemic / in life observation / body weight / body weight.
The mark [37] stands for this setting: systemic / in life observation / food consumption / food consumption + systemic / in life observation / body weight / body weight + systemic….
Where [38] appears, read: systemic / in life observation / body weight / body weight + systemic / in life observation / body weight / body weight gain + systemic / in….
Where [39] appears, read: systemic / hematology / erythrocyte (rbc) count differential / erythrocyte (rbc) + systemic / hematology / hematocrit (hct) / hematocrit (….
[40] abbreviates: systemic / in life observation / clinical signs / salivation.
The mark [41] stands for this setting: systemic / clinical chemistry / 5' nucleotidase / 5' nucleotidase + systemic / clinical chemistry / [other] / [other] + systemic / clinical ….
The mark [42] stands for this setting: systemic / in life observation / body weight / body weight + systemic / in life observation / clinical signs / salivation + systemic / in ….
[43] abbreviates: systemic / in life observation / body weight / body weight + systemic / in life observation / food consumption / food consumption.
Where [44] appears, read: group: developmental, developmental / developmental malformation / bone / delayed ossification + systemic / in life observation / body weight / fetal weight.
Setting [45] is: group: maternal, systemic / in life observation / body weight / body weight gain + systemic / in life observation / food consumption / food consumption.

As usually defined, the LOAEL is the lowest dose or exposure tested at which an adverse effect was seen. Broadly, the NOAEL is the highest tested level that showed no adverse finding. Regarding `C=C(C)CN(CC)c1c([N+](=O)[O-])cc(C(F)(F)F)cc1[N+](=O)[O-]` [Ethalfluralin], the LEL with rat [1] (setting [24]) was determined as 20 mg/kg/day; in the data set on rat [1] (group: parental, systemic / organ weight / liver / relative to body weight + systemic / in life observation / clinical signs / urogenital staining + systemic…), 20 mg/kg/day; in the data set on dog [2] (setting [27]), 4 mg/kg/day; in the data set on mouse [3] (systemic / clinical chemistry / bilirubin / total bilirubin + systemic / organ weight / kidney / absolute) it was 136 mg/kg/day; in the data set with mouse [4] it was 47 mg/kg/day; in the data set on rat [5] (setting [28]), 5 mg/kg/day. The LEL was determined as 125 mg/kg/day with dog [6] (systemic / in life observation / clinical signs / anorexia + systemic / in life observation / clinical signs / vomitting + systemic / in …) and 5 mg/kg/day in the data set on rat [7] (setting [30]). The LOAEL was greater than 61 mg/kg/day with rat [1] (setting [24]); 61 mg/kg/day in the data set on rat [1] (group: parental, systemic / organ weight / liver / absolute + systemic / organ weight / liver / relative to body weight); 20 mg/kg/day in the data set with dog [2] (setting [26]); 538 mg/kg/day with mouse [3] (systemic / in life observation / body weight / body weight + systemic / in life observation / body weight / body weight gain); 47 mg/kg/day in the data set on mouse [4]; greater than 37.5 mg/kg/day with rat [5] (setting [29]). The results for the LOAEL in the data set with dog [6] (systemic / in life observation / clinical signs / anorexia + systemic / in life observation / clinical signs / vomitting) and in the data set on rat [7] (systemic / in life observation / body weight / body weight gain + systemic / organ weight / liver / relative to body weight) were 125 mg/kg/day and 37.5 mg/kg/day, respectively. Moreover, the NEL in the data set on rat [1] (setting [24]) is 8 mg/kg/day; in the data set on rat [1] (setting [25]), 8 mg/kg/day; in the data set on dog [2] (setting [27]) it was less than 4 mg/kg/day; in the data set with mouse [3] (systemic / in life observation / body weight / body weight gain + systemic / clinical chemistry / bilirubin / total bilirubin + systemic / …), 68 mg/kg/day; in the data set on mouse [4], 11.6 mg/kg/day; with rat [5] (setting [28]), less than 5 mg/kg/day. The NEL in the data set with rat [7] (setting [30]) was less than 5 mg/kg/day. Also, the no-observed-adverse-effect level (NOAEL) in the data set with rat [1] (setting [24]) was no less than 61 mg/kg/day; in the data set on rat [1] (setting [25]), 20 mg/kg/day; in the data set with dog [2] (setting [26]), 4 mg/kg/day; with mouse [3] (systemic / in life observation / body weight / body weight + systemic / clinical chemistry / alanine aminotransferase (alt/sgpt) / alanine …) it was 285 mg/kg/day; with mouse [4], 11.6 mg/kg/day; in the data set on rat [5] (setting [29]) it was no less than 37.5 mg/kg/day. Besides, the NOAEL in the data set with rat [7] (systemic / in life observation / body weight / body weight gain + systemic / organ weight / liver / relative to body weight + systemic / …) turned out to be 12.5 mg/kg/day.

For `CN(C)C(=O)Nc1cccc(C(F)(F)F)c1` [Fluometuron], the NEL with dog [8] is 237 mg/kg/day; with mouse [9] (setting [31]), 1.2 mg/kg/day; with rat [10] (setting [33]), 10 mg/kg/day; in the data set with rat [10] (setting [35]), 10 mg/kg/day. Further, the NOAEL with dog [8] is 237 mg/kg/day; in the data set with mouse [9] (setting [31]), 61.5 mg/kg/day; with rat [10] (setting [33]), 10 mg/kg/day; with rat [10] (setting [35]), 10 mg/kg/day. Also, the lowest-observed-adverse-effect level (LOAEL) in the data set on mouse [9] (systemic / in life observation / body weight / body weight gain) came out at 260 mg/kg/day; in the data set on rat [10] (setting [32]), 100 mg/kg/day; with rat [10] (setting [34]), 100 mg/kg/day. For the same compound, the LEL in the data set on mouse [9] (systemic / pathology microscopic / lung / carcinoma + systemic / in life observation / clinical signs / [other]) was found to be 61.5 mg/kg/day; in the data set on rat [10] (setting [32]), 100 mg/kg/day; in the data set with rat [10] (setting [34]), 100 mg/kg/day.

For the compound `CC(C)(C)c1ccc(O)cc1` [4-tert-Butylphenol], in the data set on rat [11], the LEL was found to be 3590 mg/kg/day and the lowest observed adverse effect level (LOAEL) amounted to 3590 mg/kg/day.

As to `O=C(Cc1ccc(Cl)c(Cl)c1)N(O)[C@H](CN1CC[C@H](O)C1)c1ccccc1`, the LEL is 1 mg/kg/day with rat [12] (setting [36]); 300 mg/kg/day in the data set with mouse [13] (systemic / in life observation / clinical signs / hunched posture); 25 mg/kg/day in the data set with rat [15] (setting [40]); 10 mg/kg/day in the data set with rat [17] (setting [43]); 1 mg/kg/day with dog [18]; 1 mg/kg/day with rabbit [19]. Also, the LEL in the data set with dog [22] was found to be 1 mg/kg/day; in the data set with rat [23] (setting [43]), 10 mg/kg/day. Also, the NEL in the data set with rat [12] (setting [36]) was less than 1 mg/kg/day; in the data set on rat [14], 1 mg/kg/day; with rat [15] (setting [40]) it was less than 25 mg/kg/day; in the data set on rat [16] (systemic / clinical chemistry / [other] / [other] + systemic / clinical chemistry / albumin / albumin + systemic / clinical chemistry / …), 1 mg/kg/day; with rat [17] (setting [42]), 1 mg/kg/day; in the data set on dog [18], less than 1 mg/kg/day. In addition, the values for the NEL with rabbit [19], in the data set on dog [22] and in the data set with rat [23] (setting [42]) were less than 1 mg/kg/day, less than 1 mg/kg/day and 1 mg/kg/day, respectively. For the same compound, the lowest observed adverse effect level (LOAEL) in the data set on rat [12] (setting [37]) was greater than 300 mg/kg/day; in the data set on mouse [13] (setting [38]) it was greater than 1000 mg/kg/day; in the data set on rat [14], greater than 150 mg/kg/day; in the data set with rat [15] (setting [39]), greater than 500 mg/kg/day; in the data set with rat [16] (setting [41]), greater than 150 mg/kg/day; with rat [17] (setting [42]) it was greater than 50 mg/kg/day. The lowest-observed-adverse-effect level (LOAEL) was greater than 1 mg/kg/day in the data set with dog [18]; greater than 150 mg/kg/day in the data set with rabbit [19]; greater than 5 mg/kg/day in the data set on rabbit [20] (setting [44]); greater than 5 mg/kg/day in the data set with rabbit [20] (setting [45]); greater than 1 mg/kg/day with dog [21]; greater than 1 mg/kg/day with dog [22]. Moreover, the lowest observed adverse effect level (LOAEL) with rat [23] (setting [42]) was greater than 50 mg/kg/day. The no-observed-adverse-effect level (NOAEL) was no less than 300 mg/kg/day in the data set with rat [12] (setting [37]); no less than 1000 mg/kg/day in the data set on mouse [13] (setting [38]); no less than 150 mg/kg/day in the data set with rat [14]; no less than 500 mg/kg/day in the data set with rat [15] (setting [39]); no less than 150 mg/kg/day with rat [16] (setting [41]); no less than 50 mg/kg/day in the data set with rat [17] (setting [42]). In addition, the no observed adverse effect level (NOAEL) was no less than 1 mg/kg/day in the data set with dog [18]; no less than 150 mg/kg/day with rabbit [19]; no less than 5 mg/kg/day with rabbit [20] (setting [44]); no less than 5 mg/kg/day with rabbit [20] (setting [45]); no less than 1 mg/kg/day in the data set on dog [21]; no less than 1 mg/kg/day in the data set with dog [22]. Further, the NOAEL in the data set on rat [23] (setting [42]) is no less than 50 mg/kg/day.

These data come from EPA's ToxRefDB 2.
